Here are results for 41 compounds from US11001590B2, “Pyrazolopyrimidine derivatives” (BAYER ANIMAL HEALTH GMBH, priority 2016, dated 2021).

The subject of data set [1] is Dirofilaria immitis microfilariae. Put plainly: In vitro assay 3: Dirofilaria immitis microfilariae (DIROIM L1), motility. The following applies: 72 h, reduction of motility vs negative control, 72 h incubation.
Data set [2] in a line: log P by HPLC on reversed phase columns (Method L0; [a] acidic, [b] neutral range).
Description: Calibration was done with straight-chain alkan-2-ones (with 3 to 16 carbon atoms) with known log P values (measurement of log P values using retention times with linear interpolation between successive alkanones). Lambda-max-values were determined using UV-spectra from 200 nm to 400 nm and the peak values of the chromatographic signals.
The target in another data set is C. elegans Slo-1a (Caenorhabditis elegans, UniProt Q95V25). Put plainly: In vitro assay 1: C. elegans Slo-1a, action at a recombinant C. elegans CHO cell line (membrane potential measurement).
C. elegans Slo-1a, sequence (Q95V25 whole entry): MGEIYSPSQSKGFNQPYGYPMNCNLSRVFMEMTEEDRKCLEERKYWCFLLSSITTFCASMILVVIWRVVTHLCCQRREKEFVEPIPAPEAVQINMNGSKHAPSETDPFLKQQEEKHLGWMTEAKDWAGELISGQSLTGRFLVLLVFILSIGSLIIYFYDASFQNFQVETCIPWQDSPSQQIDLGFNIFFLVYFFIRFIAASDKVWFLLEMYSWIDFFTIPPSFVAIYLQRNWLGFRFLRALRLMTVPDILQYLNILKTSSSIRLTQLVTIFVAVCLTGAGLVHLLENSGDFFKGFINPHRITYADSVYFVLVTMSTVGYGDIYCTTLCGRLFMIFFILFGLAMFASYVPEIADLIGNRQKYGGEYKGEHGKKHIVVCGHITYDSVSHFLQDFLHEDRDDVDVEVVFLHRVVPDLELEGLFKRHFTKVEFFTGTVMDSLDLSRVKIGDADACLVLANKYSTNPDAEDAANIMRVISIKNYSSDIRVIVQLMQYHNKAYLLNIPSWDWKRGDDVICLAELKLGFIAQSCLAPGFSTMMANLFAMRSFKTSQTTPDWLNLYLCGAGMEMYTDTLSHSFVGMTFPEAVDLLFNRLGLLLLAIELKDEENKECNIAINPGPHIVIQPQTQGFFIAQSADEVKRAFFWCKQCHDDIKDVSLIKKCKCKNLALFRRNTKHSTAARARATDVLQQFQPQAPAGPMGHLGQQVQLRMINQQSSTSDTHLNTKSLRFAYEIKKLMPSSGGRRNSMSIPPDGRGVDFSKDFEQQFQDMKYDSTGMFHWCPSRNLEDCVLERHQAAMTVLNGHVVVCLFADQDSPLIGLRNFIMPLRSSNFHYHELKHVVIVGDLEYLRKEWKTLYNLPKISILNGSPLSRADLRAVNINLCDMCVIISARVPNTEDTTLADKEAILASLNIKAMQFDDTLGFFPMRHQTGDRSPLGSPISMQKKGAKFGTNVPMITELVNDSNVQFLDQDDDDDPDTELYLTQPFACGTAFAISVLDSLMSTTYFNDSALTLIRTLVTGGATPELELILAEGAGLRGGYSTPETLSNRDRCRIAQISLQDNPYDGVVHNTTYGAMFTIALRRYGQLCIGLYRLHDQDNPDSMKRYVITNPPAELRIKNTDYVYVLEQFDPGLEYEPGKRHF

Usually EC50 stands for the midpoint of the concentration-response curve. Usually chromatographic logP stands for lipophilicity estimated from chromatographic retention. The low end stands for a more hydrophilic compound, the high end for a more lipophilic compound. In the case of `Cc1nn2c(C(C)C)c(C(=O)N[C@H]3CCCc4ccccc43)cnc2c1-c1ccc(F)cc1` [Example 343], the EC50 in data set [1] is less than 10 µg/mL; at C. elegans Slo-1a it was 20 nM. For the same compound, in data set [2], the chromatographic logP was 4.95.

With `CC(C)c1c(C(=O)N[C@H]2CCc3ccccc32)cnc2c(-c3c(F)cccc3F)c(C(F)(F)F)nn12` [Example 135], the EC50 was less than 0.1 µg/mL in data set [1] and 126 nM at C. elegans Slo-1a. In data set [2], this compound yielded a chromatographic logP of 4.81.

Consider `COc1cc(-c2c(C)nn3c(C(C)C)c(C(=O)N[C@H]4CCOc5ccccc54)cnc23)cc(OC)c1OC` [Example 249], for which the results for the EC50 (in data set [1]; on C. elegans Slo-1a) were less than 1 µg/mL and 158 nM, respectively. The same compound showed a chromatographic logP in data set [2] of 3.94.

As for `CC(C)c1c(C(=O)N[C@H]2CCc3ccccc32)cnc2c(-c3ccccc3Cl)c(C(F)F)nn12` [Example 435], the EC50 in data set [1] was less than 0.1 µg/mL; at C. elegans Slo-1a, 25.1 nM. In data set [2], this compound gave a chromatographic logP of 4.43.

With `CCCOCc1cccc(-c2c(C)nn3c(C(C)C)c(C(=O)N[C@H]4CCc5ccccc54)cnc23)c1` [Example 390], the 50% effective concentration (EC50) is less than 10 µg/mL in data set [1] and 39.8 nM at C. elegans Slo-1a. In data set [2], this compound displayed a chromatographic logP of 5.4.

As to `CC(C)c1c(C(=O)N[C@H]2CCOc3ccccc32)cnc2c(-c3cc(Cl)cc(Cl)c3)c(C(F)(F)F)nn12` [Example 196], the results for the EC50 (in data set [1]; at C. elegans Slo-1a) were less than 10 µg/mL and 50.1 nM, respectively. The compound further showed a chromatographic logP in data set [2] of 5.84.

Consider `CNc1ccc(-c2c(C)nn3c(C(C)C)c(C(=O)N[C@H]4CCc5ccccc54)cnc23)cc1` [Example 341], for which the concentration for a half-maximal effect (EC50) in data set [1] is less than 10 µg/mL; on C. elegans Slo-1a, 200 nM. This compound also showed a chromatographic logP in data set [2] of 3.32.

For `Cc1nn2c(C(C)C)c(C(=O)N[C@H]3CCOc4ccccc43)cnc2c1-c1ccc2c(c1)N(C)CC2` [Example 238], the EC50 in data set [1] is less than 10 µg/mL; at C. elegans Slo-1a it was 158 nM. The same compound came in with a chromatographic logP in data set [2] of 4.13.

On to `Cc1nn2c(C(C)C)c(C(=O)N[C@H]3CCc4ccccc43)cnc2c1-c1cccc(Br)c1` [Example 205], for which the EC50 was less than 0.1 µg/mL in data set [1] and 25.1 nM at C. elegans Slo-1a. For the same compound, the chromatographic logP in data set [2] was determined as 5.31.

Regarding `Cc1nn2c(C(C)C)c(C(=O)N[C@H]3CCc4ccccc43)cnc2c1-c1cccnc1` [Example 297], the EC50 in data set [1] is less than 10 µg/mL; at C. elegans Slo-1a, 1260 nM. For the same compound, in data set [2], the chromatographic logP worked out at 2.19.

In the case of `Cc1nn2c(C(C)C)c(C(=O)N[C@H]3CCc4ccccc43)cnc2c1-c1cccc(CN(C)C)c1` [Example 366], the EC50 in data set [1] is less than 10 µg/mL; on C. elegans Slo-1a, 1580 nM. This compound also registered a chromatographic logP in data set [2] of 1.95.

Consider `Cc1nn2c(C3CC3)c(C(=O)N[C@H]3CCOc4ccccc43)cnc2c1-c1cc(Cl)c(F)c(Cl)c1` [Example 476], for which the results for the EC50 (in data set [1]; on C. elegans Slo-1a) were less than 1 µg/mL and 6.31 nM, respectively. In data set [2], this compound gave a chromatographic logP of 4.95.

For the compound `COc1cc(-c2c(C(F)(F)F)nn3c(C(C)C)c(C(=O)N[C@H]4CCc5ccccc54)cnc23)ccc1F` [Example 160], the EC50 in data set [1] is less than 10 µg/mL; at C. elegans Slo-1a it was 100 nM. The chromatographic logP in data set [2] came to 4.89.

As to `Cc1nn2c(C(C)C)c(C(=O)N[C@H]3CCc4ccccc43)cnc2c1-c1cccc(CS(C)(=O)=O)c1` [Example 400], the EC50 is less than 10 µg/mL in data set [1] and 126 nM at C. elegans Slo-1a. In addition, the chromatographic logP in data set [2] is 3.39.

`Cc1nn2c(C3CC3)c(C(=O)N[C@H]3CCOc4ccccc43)cnc2c1-c1ccc(F)c(F)c1` [Example 471]: the results for the EC50 (in data set [1]; on C. elegans Slo-1a) were less than 0.1 µg/mL and 3.98 nM, respectively. The compound also came in with a chromatographic logP in data set [2] of 3.86.

Regarding `Cc1nn2c(C(C)C)c(C(=O)N[C@H]3CCc4ccccc43)cnc2c1-c1cccc(N2CCC2)c1` [Example 372], the EC50 was less than 1 µg/mL in data set [1] and 15.8 nM at C. elegans Slo-1a. Further, in data set [2], the chromatographic logP was determined as 4.67.

For the compound `CCN(CC)c1cccc(-c2c(C)nn3c(C(C)C)c(C(=O)N[C@H]4CCc5ccccc54)cnc23)c1` [Example 379], the values for the EC50 (in data set [1]; on C. elegans Slo-1a) were less than 1 µg/mL and 100 nM, respectively. The chromatographic logP in data set [2] is 2.81.

For `Cc1nn2c(C(C)C)c(C(=O)N[C@H]3CCOc4ccccc43)cnc2c1-c1cc(F)c(Cl)c(F)c1` [Example 190], the values for the EC50 (in data set [1]; on C. elegans Slo-1a) were less than 1 µg/mL and 25.1 nM, respectively. Further, the chromatographic logP in data set [2] was found to be 5.39.

For the compound `Cc1nn2c(C3CC3)c(C(=O)N[C@H]3CCOc4ccccc43)cnc2c1-c1cccc(F)c1` [Example 456], the values for the EC50 (in data set [1]; at C. elegans Slo-1a) were less than 0.1 µg/mL and 6.31 nM, respectively. Also, the chromatographic logP in data set [2] was found to be 3.71.

On to `Cc1nn2c(C(C)C)c(C(=O)N[C@H]3CCc4ccccc43)cnc2c1-c1cccc(S(=O)(=O)C2CC2)c1` [Example 443], for which the EC50 in data set [1] was less than 10 µg/mL; on C. elegans Slo-1a, 50.1 nM. The chromatographic logP in data set [2] was found to be 3.99.

As for `Cc1nn2c(C(C)C)c(C(=O)N[C@H]3CCc4ccccc43)cnc2c1-c1cccc(NC(=O)C(F)(F)F)c1` [Example 315], the EC50 in data set [1] is less than 1 µg/mL; on C. elegans Slo-1a it was 251 nM. Further, the chromatographic logP in data set [2] came to 4.28.

Take `Cc1nn2c(C(C)C)c(C(=O)N[C@H]3CCc4ccccc43)cnc2c1-c1cc(Cl)c(Cl)c(Cl)c1` [Example 122]: the EC50 was less than 0.1 µg/mL in data set [1] and 12.6 nM on C. elegans Slo-1a. For the same compound, the chromatographic logP in data set [2] was 6.58.

For `Cc1nn2c(C(C)C)c(C(=O)N[C@H]3CCCc4ccccc43)cnc2c1-c1cc(F)ccc1F` [Example 115], the EC50 in data set [1] was less than 0.1 µg/mL; at C. elegans Slo-1a, 15.8 nM. This compound also gave a chromatographic logP in data set [2] of 4.89.

Take `COCc1cccc(-c2c(C(F)F)nn3c(C(C)C)c(C(=O)N[C@H]4CCc5ccccc54)cnc23)c1` [Example 430]: the EC50 in data set [1] was less than 1 µg/mL; on C. elegans Slo-1a, 15.8 nM. This compound displayed a chromatographic logP in data set [2] of 4.36.

With `CC(C)c1c(C(=O)N[C@H]2CCc3ccccc32)cnc2c(-c3cc(F)c(F)c(F)c3)c(C(F)(F)F)nn12` [Example 159], the 50% effective concentration (EC50) is less than 10 µg/mL in data set [1] and 1000 nM on C. elegans Slo-1a. Also, the chromatographic logP in data set [2] amounted to 5.4.

Turning to `Cc1nn2c(C(C)C)c(C(=O)N[C@H]3CCc4ccccc43)cnc2c1-c1cccc(N2CCCCC2)c1` [Example 356], the EC50 in data set [1] is less than 10 µg/mL; on C. elegans Slo-1a it was 158 nM. The chromatographic logP in data set [2] was 3.25.

With `Cc1nn2c(C(C)C)c(C(=O)N[C@H]3CCc4ccccc43)cnc2c1-c1cnn(C(C)C)c1` [Example 398], the EC50 was less than 1 µg/mL in data set [1] and 20 nM at C. elegans Slo-1a. Moreover, in data set [2], the chromatographic logP stood at 3.77.

`Cc1nn2c(C(C)C)c(C(=O)NC3COc4ccccc43)cnc2c1-c1c(F)cccc1F` (stereo not drawn) [Example 210]: the EC50 was less than 1 µg/mL in data set [1] and 158 nM at C. elegans Slo-1a. In data set [2], the chromatographic logP worked out at 3.99.

Consider `Cc1nn2c(C3CC3)c(C(=O)N[C@H]3CCOc4ccccc43)cnc2c1-c1cccc(N2CC(F)(F)C2)c1` [Example 464], for which the EC50 is less than 0.1 µg/mL in data set [1] and 3.16 nM at C. elegans Slo-1a. In addition, the chromatographic logP in data set [2] amounted to 3.92.

Regarding `CC(C)c1c(C(=O)N[C@H]2CCOc3ccccc32)cnc2c(-c3cc(Cl)c(F)c(Cl)c3)c(C(F)(F)F)nn12` [Example 197], the values for the EC50 (in data set [1]; on C. elegans Slo-1a) were less than 10 µg/mL and 501 nM, respectively. Further, in data set [2], the chromatographic logP came out at 5.48.

In the case of `Cc1nn2c(C3CC3)c(C(=O)N[C@H]3CCc4ccccc43)cnc2c1-c1cccc(OC2CC2)c1` [Example 418], the EC50 was less than 0.1 µg/mL in data set [1] and 3.16 nM on C. elegans Slo-1a. The compound also yielded a chromatographic logP in data set [2] of 4.29.

With `CC(C)c1c(C(=O)N[C@H]2CCc3ccccc32)cnc2c(-c3cncc(Cl)c3)c(C(F)(F)F)nn12` [Example 156], the EC50 is less than 10 µg/mL in data set [1] and 631 nM on C. elegans Slo-1a. In addition, the chromatographic logP in data set [2] came to 4.7.

Turning to `COc1cc(-c2c(C)nn3c(C(C)C)c(C(=O)N[C@H]4CCOc5ccccc54)cnc23)cc(C(F)(F)F)c1` [Example 391], the EC50 in data set [1] was less than 1 µg/mL; on C. elegans Slo-1a, 25.1 nM. The compound also had a chromatographic logP in data set [2] of 5.13.

With `Cc1nn2c(C(C)C)c(C(=O)N[C@H]3CCCc4ccccc43)cnc2c1-c1cccc(C(F)(F)F)c1` [Example 3], the figures for the EC50 (in data set [1]; on C. elegans Slo-1a) were less than 10 µg/mL and 50.1 nM, respectively. In data set [2], this compound showed a chromatographic logP of 5.59.

Take `Cc1nn2c(C3CC3)c(C(=O)N[C@H]3CCOc4ccccc43)cnc2c1-c1cc(F)cc(F)c1` [Example 537]: the values for the EC50 (in data set [1]; at C. elegans Slo-1a) were less than 0.1 µg/mL and 5.01 nM, respectively. In addition, the chromatographic logP in data set [2] is 3.99.

As for `Cc1nn2c(C(C)C)c(C(=O)N[C@H]3CCCc4ccccc43)cnc2c1-c1cccc(F)c1` [Example 347], the values for the EC50 (in data set [1]; at C. elegans Slo-1a) were less than 1 µg/mL and 39.8 nM, respectively. The chromatographic logP in data set [2] was determined as 5.04.

`Cc1nn2c(C3CC3)c(C(=O)N[C@H]3CCOc4ccccc43)cnc2c1-c1cccc(Cl)c1` [Example 455]: the EC50 in data set [1] is less than 0.1 µg/mL; on C. elegans Slo-1a it was 6.31 nM. In data set [2], the chromatographic logP came out at 4.13.

In the case of `Cc1nn2c(C3CC3)c(C(=O)N[C@H]3CCOc4ccccc43)cnc2c1-c1cccc(C(F)(F)F)c1` [Example 449], the figures for the EC50 (in data set [1]; on C. elegans Slo-1a) were less than 0.1 µg/mL and 6.31 nM, respectively. In data set [2], this compound returned a chromatographic logP of 4.31.

For the compound `Cc1nn2c(C(C)C)c(C(=O)N[C@H]3CCCc4ccccc43)cnc2c1-c1cccc(C(F)F)c1` [Example 145], the EC50 in data set [1] was less than 10 µg/mL; at C. elegans Slo-1a, 31.6 nM. The compound also yielded a chromatographic logP in data set [2] of 4.93.

With `Cc1nn2c(C(C)C)c(C(=O)N[C@H]3CCc4ccccc43)cnc2c1-c1cccc(COC(C)C)c1` [Example 369], the EC50 was less than 10 µg/mL in data set [1] and 20 nM at C. elegans Slo-1a. For the same compound, the chromatographic logP in data set [2] amounted to 5.25.

Consider `Cc1nn2c(Cc3ccc(F)cc3)c(C(=O)N[C@H]3CCc4ccccc43)cnc2c1-c1c(F)cccc1Cl` [Example 227], for which the EC50 in data set [1] is less than 10 µg/mL; on C. elegans Slo-1a, 2000 nM. Besides, in data set [2], the chromatographic logP turned out to be 4.92.
